The text below walks through data of ChEMBL document CHEMBL1152666, “Structure-based virtual screening approach to the discovery of novel inhibitors of factor-inhibiting HIF-1: identification of new chelating groups for the active-site ferrous ion” (Bioorg Med Chem, 2009).

For orientation: IC50 means the point on the concentration scale where inhibition reaches its midpoint.

The target of this test is Hypoxia-inducible factor 1-alpha inhibitor (Homo sapiens, UniProt Q9NWT6). Kind of test: Inhibition of human recombinant FIH1.
Hypoxia-inducible factor 1-alpha inhibitor, sequence (Q9NWT6 whole entry): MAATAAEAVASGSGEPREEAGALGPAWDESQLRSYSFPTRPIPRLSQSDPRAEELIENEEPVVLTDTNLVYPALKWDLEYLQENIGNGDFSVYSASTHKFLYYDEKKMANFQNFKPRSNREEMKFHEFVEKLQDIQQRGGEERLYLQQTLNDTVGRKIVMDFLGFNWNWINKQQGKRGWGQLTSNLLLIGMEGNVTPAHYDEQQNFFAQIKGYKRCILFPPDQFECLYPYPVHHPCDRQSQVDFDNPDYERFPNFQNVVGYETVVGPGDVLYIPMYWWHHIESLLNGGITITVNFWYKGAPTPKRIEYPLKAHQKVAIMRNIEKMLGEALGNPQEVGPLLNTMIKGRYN
Turning to `COc1cccc(/C=C2\SC(=S)N(CCC(=O)Nc3cccc4nonc34)C2=O)c1`, the IC50 amounted to 73.1 µM.

For `O=C(CCN1C(=O)/C(=C\C=C\c2ccco2)SC1=S)Nc1cccc2nonc12`, the IC50 amounted to 48.6 µM.

In the case of `O=C(O)CCN1C(=O)/C(=C\c2ccc(-c3ccc(Cl)cc3)o2)SC1=S`, the IC50 stood at 66 µM.

In the case of `COc1ccccc1/C=C1\SC(=S)N(CCC(=O)Nc2ccc(S(N)(=O)=O)cc2)C1=O`, the IC50 turned out to be 32.1 µM.

As for `COc1ccccc1/C=C/c1cn2c(-c3ccc4ccccc4n3)nnc2s1`, the half-maximal inhibitory concentration (IC50) came out at 47.5 µM.

`COc1ccccc1OCc1cn2c(-c3ccc4ccccc4n3)nnc2s1`: the IC50 amounted to 41.4 µM.

Consider `COc1cccc(/C=C2\SC(=S)N(CC(=O)Nc3cccc4nonc34)C2=O)c1`, for which the IC50 amounted to 45.3 µM.

For the compound `CCSc1ccc(-c2nn(-c3ccccc3)cc2/C=C2/SC(=S)N(CC(=O)O)C2=O)cc1`, the IC50 was 36.2 µM.
